PubChem BioAssay (NCI)
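These data come from cells grown in 96-well plates and exposed to compound for 48 hours at five concentrations. TGI denotes the concentration required for complete inhibition of growth.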

Assays:
Assay in all cases: DTP human tumour cell line panel, 48 h
SNB-19 CNS = tested on: SNB-19 CNS
SF-539 CNS = tested on: SF-539 CNS
MOLT-4 leukemia = tested on: MOLT-4 leukemia
MALME-3M melanoma = tested on: MALME-3M melanoma
HOP-62 NSCLC = tested on: HOP-62 NSCLC
SK-MEL-5 melanoma = tested on: SK-MEL-5 melanoma
PC-3 prostate = tested on: PC-3 prostate
MCF7 breast = tested on: MCF7 breast
786-0 renal = tested on: 786-0 renal
ACHN renal = tested on: ACHN renal
OVCAR-8 ovarian = tested on: OVCAR-8 ovarian
K-562 leukemia = tested on: K-562 leukemia
MDA-MB-435 = tested on: MDA-MB-435
HCC-2998 colon = tested on: HCC-2998 colon
UACC-62 melanoma = tested on: UACC-62 melanoma
HT29 colon = tested on: HT29 colon
UACC-257 melanoma = tested on: UACC-257 melanoma
U251 CNS = tested on: U251 CNS
SR leukemia = tested on: SR leukemia
DU-145 prostate = tested on: DU-145 prostate
SW-620 colon = tested on: SW-620 colon
SK-MEL-2 melanoma = tested on: SK-MEL-2 melanoma
CAKI-1 renal = tested on: CAKI-1 renal
SK-OV-3 ovarian = tested on: SK-OV-3 ovarian
UO-31 renal = tested on: UO-31 renal
RXF 393 renal = tested on: RXF 393 renal
NCI/ADR-RES ovarian = tested on: NCI/ADR-RES ovarian
HCT-15 colon = tested on: HCT-15 colon
HS 578T breast = tested on: HS 578T breast
A549 NSCLC = tested on: A549 NSCLC
OVCAR-5 ovarian = tested on: OVCAR-5 ovarian
OVCAR-4 ovarian = tested on: OVCAR-4 ovarian
SN12C renal = tested on: SN12C renal
NCI-H23 lung = tested on: NCI-H23 lung
NCI-H522 lung = tested on: NCI-H522 lung
M14 melanoma = tested on: M14 melanoma
TK-10 renal = tested on: TK-10 renal
SF-268 CNS = tested on: SF-268 CNS
HCT-116 colon = tested on: HCT-116 colon
BT-549 breast = tested on: BT-549 breast
COLO 205 colon = tested on: COLO 205 colon
SNB-75 CNS = tested on: SNB-75 CNS
EKVX NSCLC = tested on: EKVX NSCLC
IGROV1 ovarian = tested on: IGROV1 ovarian
A498 renal = tested on: A498 renal
HOP-92 NSCLC = tested on: HOP-92 NSCLC
NCI-H226 lung = tested on: NCI-H226 lung
T-47D breast = tested on: T-47D breast
RPMI-8226 leukemia = tested on: RPMI-8226 leukemia
MDA-MB-231 breast = tested on: MDA-MB-231 breast
SF-295 CNS = tested on: SF-295 CNS
LOX IMVI melanoma = tested on: LOX IMVI melanoma
NCI-H460 lung = tested on: NCI-H460 lung
CCRF-CEM leukemia = tested on: CCRF-CEM leukemia
MDA-N = tested on: MDA-N
OVCAR-3 ovarian = tested on: OVCAR-3 ovarian
HL-60(TB) leukemia = tested on: HL-60(TB) leukemia
SK-MEL-28 melanoma = tested on: SK-MEL-28 melanoma
KM12 colon = tested on: KM12 colon

Measured: TGI

Nc1nc(=O)n(C2CC(O)C(CO)O2)c2nc(-c3ccc(-c4ccccc4)cc3)cnc12 (configuration not stated)
93.9 µM: HS 578T breast
42.6 µM: U251 CNS
50.1 µM: MDA-MB-231 breast
54.1 µM: MCF7 breast
64.9 µM: NCI-H226 lung
61.1 µM: UACC-62 melanoma
66.8 µM: SNB-75 CNS
76 µM: MOLT-4 leukemia
91.1 µM: SNB-19 CNS
82.9 µM: HOP-62 NSCLC
57.4 µM: T-47D breast
79 µM: SF-268 CNS
48.9 µM: NCI-H522 lung
not listed: OVCAR-3 ovarian | HL-60(TB) leukemia | SK-MEL-28 melanoma | KM12 colon
> 100 µM: all other assays above

CCOC(=O)C(C(=O)OCC)C(=S)NC1OC(COC(C)=O)C(OC(C)=O)C(OC(C)=O)C1OC(C)=O (configuration not stated)
not listed: PC-3 prostate | ACHN renal | K-562 leukemia | TK-10 renal | SNB-75 CNS
> 100 µM: all other assays above

CC1=NN(c2cccc(S(=O)(=O)O)c2)C2(C1)SCC(=O)N2c1nc2ccccc2s1 (configuration not stated)
not listed: CCRF-CEM leukemia
> 100 µM: all other assays above
